In brackets after ≈: the same amount, converted by molar mass.
system: Staphylococcus epidermidis; assay: Antibacterial activity against Staphylococcus epidermidis MTCC 3615 assessed as zone of inhibition at 1 mg/disc after 24 hrs by disc diffusion method; assay type: functional; conditions: not given

| SMILES | inhibition zone (IZ) [mm] |
| --- | --- |
| CN1C(=O)[C@]2(c3ccccc31)[C@H](c1cn(-c3ccccc3)nc1-c1ccccc1)[C@@](C#N)(C(=O)c1c[nH]c3ccccc13)CN2C | 8 |
| C#CCN1C(=O)[C@]2(c3ccccc31)[C@H](c1cn(-c3ccccc3)nc1-c1ccccc1)[C@@](C#N)(C(=O)c1c[nH]c3ccccc13)CN2C | 10 |
| CN1C[C@](C#N)(C(=O)c2c[nH]c3ccccc23)[C@@H](c2cn(-c3ccccc3)nc2-c2ccccc2)[C@@]12C(=O)Nc1ccc(Cl)cc12 | 8 |

system: Salmonella typhimurium; assay: Antibacterial activity against Salmonella typhimurium MTCC 1251 assessed as zone of inhibition at 1 mg/disc after 24 hrs by disc diffusion method; assay type: functional, Salmonella enterica subsp. enterica serovar Typhimurium; conditions: not given

| SMILES | inhibition zone (IZ) [mm] |
| --- | --- |
| CN1C[C@](C#N)(C(=O)c2c[nH]c3ccccc23)[C@@H](c2cn(-c3ccccc3)nc2-c2ccccc2)[C@@]12C(=O)Nc1ccc(Cl)cc12 | 8 |

system: Proteus vulgaris; assay: Antibacterial activity against Proteus vulgaris MTCC 1771 assessed as zone of inhibition at 1 mg/disc after 24 hrs by disc diffusion method; assay type: functional; conditions: not given

| SMILES | inhibition zone (IZ) [mm] |
| --- | --- |
| CN1C(=O)[C@]2(c3ccccc31)[C@H](c1cn(-c3ccccc3)nc1-c1ccccc1)[C@@](C#N)(C(=O)c1c[nH]c3ccccc13)CN2C | 10 |
| C#CCN1C(=O)[C@]2(c3ccccc31)[C@H](c1cn(-c3ccccc3)nc1-c1ccccc1)[C@@](C#N)(C(=O)c1c[nH]c3ccccc13)CN2C | 8 |
| CN1C[C@](C#N)(C(=O)c2c[nH]c3ccccc23)[C@@H](c2cn(-c3ccccc3)nc2-c2ccccc2)[C@@]12C(=O)Nc1ccc(Cl)cc12 | 11 |

system: Staphylococcus aureus; assay: Antibacterial activity against methicillin-resistant Staphylococcus aureus assessed as zone of inhibition at 1 mg/disc after 24 hrs by disc diffusion method; assay type: functional; conditions: not given

| SMILES | inhibition zone (IZ) [mm] |
| --- | --- |
| C#CCN1C(=O)[C@]2(c3ccccc31)[C@H](c1cn(-c3ccccc3)nc1-c1ccccc1)[C@@](C#N)(C(=O)c1c[nH]c3ccccc13)CN2C | 8 |
| CN1C[C@](C#N)(C(=O)c2c[nH]c3ccccc23)[C@@H](c2cn(-c3ccccc3)nc2-c2ccccc2)[C@@]12C(=O)Nc1ccc(Cl)cc12 | 12 |

system: Proteus vulgaris; assay: Antibacterial activity against Proteus vulgaris MTCC 1771 assessed as inhibition of visual growth after 24 hrs; assay type: functional; conditions: MTCC 1771, 24 h

| SMILES | MIC [µg/mL] |
| --- | --- |
| CN1C(=O)[C@]2(c3ccccc31)[C@H](c1cn(-c3ccccc3)nc1-c1ccccc1)[C@@](C#N)(C(=O)c1c[nH]c3ccccc13)CN2C | 250 (≈ 415 µM) |
| C#CCN1C(=O)[C@]2(c3ccccc31)[C@H](c1cn(-c3ccccc3)nc1-c1ccccc1)[C@@](C#N)(C(=O)c1c[nH]c3ccccc13)CN2C | 500 (≈ 798 µM) |

system: Malassezia pachydermatis; assay: Antifungal activity against Malassezia pachydermatis assessed as inhibition of visual growth after 48 to 72 hrs; assay type: functional; conditions: not given

| SMILES | MIC [µg/mL] |
| --- | --- |
| CN1C(=O)[C@]2(c3ccccc31)[C@H](c1cn(-c3ccccc3)nc1-c1ccccc1)[C@@](C#N)(C(=O)c1c[nH]c3ccccc13)CN2C | 500 (≈ 830 µM) |
| C#CCN1C(=O)[C@]2(c3ccccc31)[C@H](c1cn(-c3ccccc3)nc1-c1ccccc1)[C@@](C#N)(C(=O)c1c[nH]c3ccccc13)CN2C | 500 (≈ 798 µM) |

system: Micrococcus luteus; assay: Antibacterial activity against Micrococcus luteus MTCC 106 assessed as inhibition of visual growth after 24 hrs; assay type: functional; conditions: MTCC 106, 24 h

| SMILES | MIC [µg/mL] |
| --- | --- |
| CN1C(=O)[C@]2(c3ccccc31)[C@H](c1cn(-c3ccccc3)nc1-c1ccccc1)[C@@](C#N)(C(=O)c1c[nH]c3ccccc13)CN2C | 500 (≈ 830 µM) |
| C#CCN1C(=O)[C@]2(c3ccccc31)[C@H](c1cn(-c3ccccc3)nc1-c1ccccc1)[C@@](C#N)(C(=O)c1c[nH]c3ccccc13)CN2C | 500 (≈ 798 µM) |

system: Staphylococcus aureus; assay: Antibacterial activity against methicillin-resistant Staphylococcus aureus assessed as inhibition of visual growth after 24 hrs; assay type: functional; conditions: not given

| SMILES | MIC [µg/mL] |
| --- | --- |
| C#CCN1C(=O)[C@]2(c3ccccc31)[C@H](c1cn(-c3ccccc3)nc1-c1ccccc1)[C@@](C#N)(C(=O)c1c[nH]c3ccccc13)CN2C | 500 (≈ 798 µM) |

system: Staphylococcus aureus; assay: Antibacterial activity against Staphylococcus aureus MTCC 96 assessed as zone of inhibition at 1 mg/disc after 24 hrs by disc diffusion method; assay type: functional; conditions: not given

| SMILES | inhibition zone (IZ) [mm] |
| --- | --- |
| C#CCN1C(=O)[C@]2(c3ccccc31)[C@H](c1cn(-c3ccccc3)nc1-c1ccccc1)[C@@](C#N)(C(=O)c1c[nH]c3ccccc13)CN2C | 9 |
| CN1C[C@](C#N)(C(=O)c2c[nH]c3ccccc23)[C@@H](c2cn(-c3ccccc3)nc2-c2ccccc2)[C@@]12C(=O)Nc1ccc(Cl)cc12 | 11 |

system: Klebsiella aerogenes; assay: Antibacterial activity against Enterobacter aerogenes MTCC 111 assessed as inhibition of visual growth after 24 hrs; assay type: functional; conditions: MTCC 111, 24 h

| SMILES | MIC [µg/mL] |
| --- | --- |
| CN1C(=O)[C@]2(c3ccccc31)[C@H](c1cn(-c3ccccc3)nc1-c1ccccc1)[C@@](C#N)(C(=O)c1c[nH]c3ccccc13)CN2C | 500 (≈ 830 µM) |
| C#CCN1C(=O)[C@]2(c3ccccc31)[C@H](c1cn(-c3ccccc3)nc1-c1ccccc1)[C@@](C#N)(C(=O)c1c[nH]c3ccccc13)CN2C | 250 (≈ 399 µM) |

system: Staphylococcus epidermidis; assay: Antibacterial activity against Staphylococcus epidermidis MTCC 3615 assessed as inhibition of visual growth after 24 hrs; assay type: functional; conditions: MTCC 3615, 24 h

| SMILES | MIC [µg/mL] |
| --- | --- |
| CN1C(=O)[C@]2(c3ccccc31)[C@H](c1cn(-c3ccccc3)nc1-c1ccccc1)[C@@](C#N)(C(=O)c1c[nH]c3ccccc13)CN2C | 500 (≈ 830 µM) |
| C#CCN1C(=O)[C@]2(c3ccccc31)[C@H](c1cn(-c3ccccc3)nc1-c1ccccc1)[C@@](C#N)(C(=O)c1c[nH]c3ccccc13)CN2C | 250 (≈ 399 µM) |

system: Micrococcus luteus; assay: Antibacterial activity against Micrococcus luteus MTCC 106 assessed as zone of inhibition at 1 mg/disc after 24 hrs by disc diffusion method; assay type: functional; conditions: not given

| SMILES | inhibition zone (IZ) [mm] |
| --- | --- |
| CN1C(=O)[C@]2(c3ccccc31)[C@H](c1cn(-c3ccccc3)nc1-c1ccccc1)[C@@](C#N)(C(=O)c1c[nH]c3ccccc13)CN2C | 10 |
| C#CCN1C(=O)[C@]2(c3ccccc31)[C@H](c1cn(-c3ccccc3)nc1-c1ccccc1)[C@@](C#N)(C(=O)c1c[nH]c3ccccc13)CN2C | 8 |
| CN1C[C@](C#N)(C(=O)c2c[nH]c3ccccc23)[C@@H](c2cn(-c3ccccc3)nc2-c2ccccc2)[C@@]12C(=O)Nc1ccc(Cl)cc12 | 10 |

system: Staphylococcus aureus; assay: Antibacterial activity against Staphylococcus aureus MTCC 96 assessed as inhibition of visual growth after 24 hrs; assay type: functional; conditions: MTCC 96, 24 h

| SMILES | MIC [µg/mL] |
| --- | --- |
| C#CCN1C(=O)[C@]2(c3ccccc31)[C@H](c1cn(-c3ccccc3)nc1-c1ccccc1)[C@@](C#N)(C(=O)c1c[nH]c3ccccc13)CN2C | 500 (≈ 798 µM) |

system: Malassezia pachydermatis; assay: Antifungal activity against Malassezia pachydermatis assessed as zone of inhibition at 1 mg/disc after 48 hrs by disc diffusion method; assay type: functional; conditions: not given

| SMILES | inhibition zone (IZ) [mm] |
| --- | --- |
| CN1C(=O)[C@]2(c3ccccc31)[C@H](c1cn(-c3ccccc3)nc1-c1ccccc1)[C@@](C#N)(C(=O)c1c[nH]c3ccccc13)CN2C | 10 |
| C#CCN1C(=O)[C@]2(c3ccccc31)[C@H](c1cn(-c3ccccc3)nc1-c1ccccc1)[C@@](C#N)(C(=O)c1c[nH]c3ccccc13)CN2C | 8 |
| CN1C[C@](C#N)(C(=O)c2c[nH]c3ccccc23)[C@@H](c2cn(-c3ccccc3)nc2-c2ccccc2)[C@@]12C(=O)Nc1ccc(Cl)cc12 | 9 |

system: Klebsiella pneumoniae; assay: Antibacterial activity against Klebsiella pneumoniae MTCC 109 assessed as inhibition of visual growth after 24 hrs; assay type: functional; conditions: MTCC 109, 24 h

| SMILES | MIC [µg/mL] |
| --- | --- |
| CN1C(=O)[C@]2(c3ccccc31)[C@H](c1cn(-c3ccccc3)nc1-c1ccccc1)[C@@](C#N)(C(=O)c1c[nH]c3ccccc13)CN2C | 500 (≈ 830 µM) |
| C#CCN1C(=O)[C@]2(c3ccccc31)[C@H](c1cn(-c3ccccc3)nc1-c1ccccc1)[C@@](C#N)(C(=O)c1c[nH]c3ccccc13)CN2C | 250 (≈ 399 µM) |

system: Klebsiella aerogenes; assay: Antibacterial activity against Enterobacter aerogenes MTCC 111 assessed as zone of inhibition at 1 mg/disc after 24 hrs by disc diffusion method; assay type: functional; conditions: not given

| SMILES | inhibition zone (IZ) [mm] |
| --- | --- |
| CN1C(=O)[C@]2(c3ccccc31)[C@H](c1cn(-c3ccccc3)nc1-c1ccccc1)[C@@](C#N)(C(=O)c1c[nH]c3ccccc13)CN2C | 8 |
| C#CCN1C(=O)[C@]2(c3ccccc31)[C@H](c1cn(-c3ccccc3)nc1-c1ccccc1)[C@@](C#N)(C(=O)c1c[nH]c3ccccc13)CN2C | 10 |
| CN1C[C@](C#N)(C(=O)c2c[nH]c3ccccc23)[C@@H](c2cn(-c3ccccc3)nc2-c2ccccc2)[C@@]12C(=O)Nc1ccc(Cl)cc12 | 9 |

system: Candida albicans; assay: Antifungal activity against Candida albicans MTCC 227 assessed as zone of inhibition at 1 mg/disc after 48 hrs by disc diffusion method; assay type: functional; conditions: not given

| SMILES | inhibition zone (IZ) [mm] |
| --- | --- |
| CN1C(=O)[C@]2(c3ccccc31)[C@H](c1cn(-c3ccccc3)nc1-c1ccccc1)[C@@](C#N)(C(=O)c1c[nH]c3ccccc13)CN2C | 11 |
| C#CCN1C(=O)[C@]2(c3ccccc31)[C@H](c1cn(-c3ccccc3)nc1-c1ccccc1)[C@@](C#N)(C(=O)c1c[nH]c3ccccc13)CN2C | 10 |
| CN1C[C@](C#N)(C(=O)c2c[nH]c3ccccc23)[C@@H](c2cn(-c3ccccc3)nc2-c2ccccc2)[C@@]12C(=O)Nc1ccc(Cl)cc12 | 11 |

system: Klebsiella pneumoniae; assay: Antibacterial activity against Klebsiella pneumoniae MTCC 109 assessed as zone of inhibition at 1 mg/disc after 24 hrs by disc diffusion method; assay type: functional; conditions: not given

| SMILES | inhibition zone (IZ) [mm] |
| --- | --- |
| CN1C(=O)[C@]2(c3ccccc31)[C@H](c1cn(-c3ccccc3)nc1-c1ccccc1)[C@@](C#N)(C(=O)c1c[nH]c3ccccc13)CN2C | 8 |
| C#CCN1C(=O)[C@]2(c3ccccc31)[C@H](c1cn(-c3ccccc3)nc1-c1ccccc1)[C@@](C#N)(C(=O)c1c[nH]c3ccccc13)CN2C | 10 |
| CN1C[C@](C#N)(C(=O)c2c[nH]c3ccccc23)[C@@H](c2cn(-c3ccccc3)nc2-c2ccccc2)[C@@]12C(=O)Nc1ccc(Cl)cc12 | 9 |

system: Candida albicans; assay: Antifungal activity against Candida albicans MTCC 227 assessed as inhibition of visual growth after 48 to 72 hrs; assay type: functional; conditions: not given

| SMILES | MIC [µg/mL] |
| --- | --- |
| CN1C(=O)[C@]2(c3ccccc31)[C@H](c1cn(-c3ccccc3)nc1-c1ccccc1)[C@@](C#N)(C(=O)c1c[nH]c3ccccc13)CN2C | 250 (≈ 415 µM) |
| C#CCN1C(=O)[C@]2(c3ccccc31)[C@H](c1cn(-c3ccccc3)nc1-c1ccccc1)[C@@](C#N)(C(=O)c1c[nH]c3ccccc13)CN2C | 125 (≈ 199 µM) |

Source: ChEMBL document CHEMBL3351686, “Facile and diastereoselective synthesis of 3,2'-spiropyrrolidine-oxindoles derivatives, their molecular docking and antiproliferative activities” (2015)
